Results published in patent publication EP4703363A1, “SALT FORM AND CRYSTAL FORM OF THIENOPYRIMIDINE COMPOUND, AND PREPARATION METHOD THEREFOR AND USE THEREOF” (Shandong Luye Pharmaceutical Co., Ltd., priority 2023, dated 2024).
Each block holds one molecule with its values, some of them ahead of it.

Legend:
human GnRHR [1] = molecular target: T1, human GnRHR (Homo sapiens, UniProt P30968); assay: In vitro antagonistic activity screening (FLIPR fluorescence, Leuprolide acetate stimulation); assay type: cell-based; conditions: HEK293 cells stably expressing human GnRHR
T1 sequence (P30968 1-328): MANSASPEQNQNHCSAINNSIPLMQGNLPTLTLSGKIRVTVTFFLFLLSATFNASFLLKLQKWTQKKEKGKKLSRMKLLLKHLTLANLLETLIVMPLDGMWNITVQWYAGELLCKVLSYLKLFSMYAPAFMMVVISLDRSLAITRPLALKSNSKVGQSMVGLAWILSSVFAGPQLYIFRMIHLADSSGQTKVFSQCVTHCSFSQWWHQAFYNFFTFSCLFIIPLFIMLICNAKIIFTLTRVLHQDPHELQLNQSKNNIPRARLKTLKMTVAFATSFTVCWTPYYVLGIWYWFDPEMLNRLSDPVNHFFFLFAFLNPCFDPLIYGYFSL
Protocol: Cell: HEK293 cells stably expressing human GnRHR (WuXi AppTec (Shanghai) Co., Ltd.) Equipment: 384-well plate, Greiner; Vi-cell XR Cell Viability Analyzer, Beckman Coulter; incubator, Thermo.
Method: HEK293 cells stably expressing human GnRHR were seeded into a 384-well plate at a density of 20,000 cells/well. Fluo-4 DirectTM No-wash Loading Buffer (Invitrogen) was added to each well the next day, and then the plate was put back into an incubator, incubated at 37 °C for 50 min, and then incubated at room temperature for 10 min. […] Fluorescence was measured using a FLIPR Tetra high-throughput real-time fluorescence assay and analysis system. Then 10 µL of Leuprolide acetate was added, and fluorescence was measured. The IC50 and IC90 of the compound were calculated using Prism. Table 12. The in vitro antagonistic activity of the compound of formula I against human GnRHR

[2] = molecular target: T2, human hERG potassium channel (Homo sapiens, UniProt Q12809); assay: hERG test (QPatch automated patch clamp, CHO cells); assay type: cell-based; conditions: CHO cells stably expressing human hERG potassium channel
T2 construct: host or cells: CHO
Protocol: Cell: CHO cells stably expressing a human hERG potassium channel (WuXi AppTec (Shanghai) Co., Ltd.)
Reagents: physiological solution (PH = 7.4): 140 mM NaCl, 4 mM KCl, 2 mM CaCl2, 1 mM MgCl2, 5 mM glucose, 10 mM HEPES, osmolarity: about 298 mOsm; external solution (PH = 7.4): 80 mM NaCl, 4 mM KCl, 2 mM CaCl2, 1 mM MgCl2, 5 mM glucose, 60 mM NMDG, 10 mM HEPES, osmolarity: about 289 mOsm; and internal solution (PH = 7.4): 10 mM NaCl, 10 mM KCl, 110 mM KF, 10 mM HEPES, EGTA: […], osmolarity: about 280 mOsm.
Equipment: QPatch high-throughput automated patch clamp system, Sophion.
Method: CHO cells stably expressing a human hERG potassium channel were digested with TrypLE and resuspended in the physiological solution for later use. The single-cell high-impedance sealing and whole-cell mode formation processes were automatically completed by Qpatch. The cells were clamped at a voltage of -80 mV, then a voltage of -50 mV was applied for 80 ms to subtract (current) leakage, and a voltage of +20 mV was applied for 4800 ms to open the hERG channel. The voltage was then reduced to -50 mV and maintained for 5000 ms. This process was used for data collection and analysis. Finally, the voltage was returned to the clamping voltage (-80 mV, 1000 ms). This process was repeated every 20,000 ms. […]

[3] = Caco-2 monolayer two-way permeability and efflux; assay type: in vitro ADME; conditions: human
Protocol: Instruments: water purification instrument, ELGA LabWate; biosafety cabinet, NUAIRE; thermostatic CO2 incubator, Thermo; microplate reader, PerkinElmer; LC-MS/MS, AB SCIEX.
Method: A Caco-2 monolayer cell model was used to determine the two-way permeability of the test substance and evaluate whether the test substance was transported via efflux by a transporter. In the experiment, Caco-2 cells were seeded into a 96-well cell culture plate and cultured for 28 consecutive days before a transport assay. The test substance was administered on two sides. After 120 min of incubation, samples of apical end A, basal end B, and the cell lysate were collected, and the content of the test substance in the samples was quantitatively determined using a liquid chromatography-tandem mass spectrometry (LC/MS/MS) method. The apparent permeability coefficients (Papp) in the direction from the apical end to the basal end (A-B) and in the direction from the basal end to the apical end (B-A) and the efflux ratio were calculated based on the concentration of the test substance. Table 15. The permeability of the compound of formula I in Caco-2 cells

[4] = In vivo pharmacokinetics in SD rats; conditions: for F: absolute bioavailability; for AUC(0-t) / C0 / MRT last / half-life / Cmax / Tmax: male, rat, plasma
Protocol: (§1) Rats: SD rats, male, 200-250 g
(§2) Instruments: water purification instrument, Millipore; electronic balance, METTLER TOLEDO; highspeed benchtop centrifuge, Thermo; water bath thermostatic oscillator, Shanghai Yiheng Technical Co., Ltd.; vortex oscillator, Thermo; LC-MS/MS, AB SCIEX.
(§3) Method: Solutions of all compounds were prepared using DMSO and 20% solutol. In the pharmacokinetic experiment, the administration dose for the intravenous group (i.v) was 1 mg/kg, and the administration dose for the intragastric group (i.g) was 12 mg/kg; each group contained 3 rats. Blood was collected from the orbit of the rats before administration (0 h) and at set time points after administration. In the tissue distribution experimental group, the rats were intragastrically dosed at 12 mg/kg. […] The […] was placed in a heparinized EP tube and centrifuged at 13,500 rpm for 10 min to isolate the plasma. The pituitary was homogenized with water in a certain ratio. The plasma and pituitary homogenates were pre-treated and then analyzed by LC-MS/MS to determine the concentrations of the test substances in the plasma and the pituitary. The plasma drug concentration data were processed in a non-compartmental model using WinNonlin™ Version 6.3 (Pharsight, Mountain View, CA) pharmacokinetic software. […] Table 16-1. Pharmacokinetic parameters in SD rats after intravenous administration

[5] = Pituitary tissue distribution in SD rats; assay type: in vivo; conditions: intragastric 12 mg/kg; for Kp at 1 h / Kp at 4 h / Kp at 12 h: male, rat, pituitary/plasma, oral
Protocol: as §1, §2, §3

human GnRHR [6] = molecular target: T1, human GnRHR; assay: In vitro binding screening ([125I]-[D-Trp6]-LH-RH displacement, Chem-1 cell membrane); parameters: host or cells: Chem-1 cells (membrane preparation)
Protocol: [D-Trp6]-LH-RH, PerkinElmer; [D-Trp6]-LH-RH, Abcam.
Equipment: MicroBeta2 LumiJET system, PerkinElmer.
1 µM [D-Trp6]-LH-RH was used in the non-specific binding assay. The cell membrane was collected by filtration under vacuum and washed before liquid scintillation. The binding IC50 and IC90 of the compound were calculated using Prism. Table 13. The in vitro binding activity of the compound of the present disclosure to human GnRHR

[7] = intragastric administration group

T2 sequence (Q12809 whole entry): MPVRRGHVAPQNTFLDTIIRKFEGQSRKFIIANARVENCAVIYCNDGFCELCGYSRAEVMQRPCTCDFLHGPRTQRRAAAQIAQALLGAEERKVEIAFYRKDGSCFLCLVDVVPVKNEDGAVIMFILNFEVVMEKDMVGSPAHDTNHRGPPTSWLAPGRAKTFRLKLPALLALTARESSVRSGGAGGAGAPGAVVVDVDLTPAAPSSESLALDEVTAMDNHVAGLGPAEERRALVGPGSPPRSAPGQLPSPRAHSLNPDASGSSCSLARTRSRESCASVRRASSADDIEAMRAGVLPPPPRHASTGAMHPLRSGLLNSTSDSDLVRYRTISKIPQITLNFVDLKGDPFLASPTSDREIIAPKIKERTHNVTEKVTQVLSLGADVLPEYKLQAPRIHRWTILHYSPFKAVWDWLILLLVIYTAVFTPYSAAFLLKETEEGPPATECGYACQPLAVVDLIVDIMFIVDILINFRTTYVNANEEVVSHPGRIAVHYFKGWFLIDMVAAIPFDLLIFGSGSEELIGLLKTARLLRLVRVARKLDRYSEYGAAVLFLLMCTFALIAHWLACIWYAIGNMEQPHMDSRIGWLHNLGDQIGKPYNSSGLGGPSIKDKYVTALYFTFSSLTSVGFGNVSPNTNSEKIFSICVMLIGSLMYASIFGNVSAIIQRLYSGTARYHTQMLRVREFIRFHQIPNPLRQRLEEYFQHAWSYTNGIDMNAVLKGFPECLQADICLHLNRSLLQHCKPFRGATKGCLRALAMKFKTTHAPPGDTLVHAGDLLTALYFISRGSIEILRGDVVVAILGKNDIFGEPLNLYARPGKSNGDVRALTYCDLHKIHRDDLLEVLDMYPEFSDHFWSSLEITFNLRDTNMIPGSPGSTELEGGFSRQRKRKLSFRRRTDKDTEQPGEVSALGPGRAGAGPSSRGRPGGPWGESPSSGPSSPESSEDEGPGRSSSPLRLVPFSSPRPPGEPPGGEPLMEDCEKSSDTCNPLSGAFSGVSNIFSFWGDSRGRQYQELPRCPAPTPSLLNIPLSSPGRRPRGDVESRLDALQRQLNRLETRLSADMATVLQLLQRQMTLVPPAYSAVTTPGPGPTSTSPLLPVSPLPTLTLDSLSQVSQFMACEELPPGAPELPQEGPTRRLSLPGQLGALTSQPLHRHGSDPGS

Structure (SMILES): CCNC(=O)Nc1ccc(-c2sc3c(c2CN(C)C)c(=O)n(-c2ccc(OC)nn2)c(=O)n3Cc2c(F)cccc2F)cn1 [Formula I]
IC50 (human GnRHR [1]; read-out: Functional IC50): 1.01 nM
IC90 (human GnRHR [1]; read-out: Functional IC90): 7.55 nM
IC50 [2]: 25800 nM
efflux ratio at 120 min ([3]; Caco-2): 294
Papp A→B at 120 min ([3]; Caco-2, 120 min incubation, A to B): 0.0142 ×10⁻⁶ cm/s
Papp B→A at 120 min ([3]; Caco-2, 120 min incubation, B to A): 4.19 ×10⁻⁶ cm/s
F ([4]; i.g 12 mg/kg): 19.9%
AUClast relative to Relugolix [4, 7]: 2.45 times
Cmax relative to Relugolix [4, 7]: 3.63 times
AUC(0-t) ([4]; intravenous, i.v 1 mg/kg): 150 ± 12 ng·h/mL
C0 ([4]; intravenous, i.v 1 mg/kg): 68.8 ± 21.7 ng/mL
MRT last ([4]; intravenous, i.v 1 mg/kg): 5.41 ± 0.47 h
half-life ([4]; intravenous, i.v 1 mg/kg): 6.39 ± 1.08 h
AUC(0-t) ([4]; oral, i.g 12 mg/kg): 357 ± 85 ng·h/mL
Cmax ([4]; oral, i.g 12 mg/kg): 78.5 ± 36.4 ng/mL
MRT last ([4]; oral, i.g 12 mg/kg): 6.13 ± 1.1 h
Tmax ([4]; oral, i.g 12 mg/kg): 0.38 ± 0.14 h
half-life ([4]; oral, i.g 12 mg/kg): 4.31 ± 1.81 h
Pituitary ([5]; 1 h): 2250±474
Plasma ([5]; 1 h): 39.5±14.0
concentration in the pituitary relative to Relugolix ([5]; 1 h): 2.38 times
Pituitary ([5]; 4 h): 1841±636
Plasma ([5]; 4 h): 22.8±2.5
concentration in the pituitary relative to Relugolix ([5]; 4 h): 1.48 times
Pituitary ([5]; 12 h): 1254±494
Plasma ([5]; 12 h): 9.70±3.10
concentration in the pituitary relative to Relugolix ([5]; 12 h): 2.46 times
Kp at 1 h ([5]; 1 h): 56.9
Kp at 4 h ([5]; 4 h): 80.8
Kp at 12 h ([5]; 12 h): 129
IC50 (human GnRHR [6]): 0.64 nM
IC90 (human GnRHR [6]): 2.67 nM

T1/2 ([4]; i.g 12 mg/kg): 3.88 ± 0.57 h
F ([4]; i.g 12 mg/kg): 5.74%
AUC(0-t) ([4]; intravenous, i.v 1 mg/kg): 212 ± 61 ng·h/mL
C0 ([4]; intravenous, i.v 1 mg/kg): 339 ± 36 ng/mL
MRT last ([4]; intravenous, i.v 1 mg/kg): 2.01 ± 0.92 h
AUC(0-t) ([4]; oral, i.g 12 mg/kg): 146 ± 37 ng·h/mL
Cmax ([4]; oral, i.g 12 mg/kg): 21.6 ± 8.3 ng/mL
MRT last ([4]; oral, i.g 12 mg/kg): 5.68 ± 0.17 h
Tmax ([4]; oral, i.g 12 mg/kg): 0.33 ± 0.14 h
Kp at 1 h ([5]; 1 h): 42.4
Kp at 4 h ([5]; 4 h): 76.3
Kp at 12 h ([5]; 12 h): 161
Structure (SMILES): CONC(=O)Nc1ccc(-c2sc3c(c2CN(C)C)c(=O)n(-c2ccc(OC)nn2)c(=O)n3Cc2c(F)cccc2F)cc1 [Relugolix, reference compound]
